Assay results reported in US9832994B2, “Thymol and totarol antibacterial composition” (COLGATE-PALMOLIVE COMPANY, priority 2011, dated 2017).

How the values were obtained:
E. coli = experiment: Minimum Inhibition Concentration (MIC) and Fractional Inhibitory Concentration (FIC) against E. coli; format: cell-based; conditions: Escherichia coli, single active, tryptic soy broth, 96 well plate, 16-24 hours at 37° C
Procedure: (§1) Minimum Inhibition Concentration (MIC) Serial dilutions of the active are combined with tryptic soy broth and 0.1 optical density of bacteria in a 96 well plate. The optical density of the mixture is measured after 16-24 hours at 37° C. An increase in optical density represents bacterial growth. The plate is analyzed to determine the minimum concentration needed to inhibit growth of bacteria. Numbers are reported in ppm. The MIC values are determined for thymol and totarol against E. Coli and S. aureus. The MIC dose response assay is conducted just as the MIC, however, one active's concentration is kept constant and the other active's concentration follows a two-fold serial dilution. Fractional Inhibition Concentration (FIC) The MIC values are also determined for thymol in the presence of totarol to determine the Fractional Inhibitory Concentration (FIC). This calculation accounts for the fractional activity of thymol and totarol within a MIC test. [formula] such that: [table]

S. aureus = experiment: Minimum Inhibition Concentration (MIC) and Fractional Inhibitory Concentration (FIC) against S. aureus; format: cell-based; conditions: Staphylococcus aureus, single active, tryptic soy broth, 96 well plate, 16-24 hours at 37° C
Procedure: as §1

SMILES | MIC (E. coli) | MIC (S. aureus)
CC(C)c1c(O)ccc2c1CC[C@H]1C(C)(C)CCC[C@]21C [Totarol, totarol] | 125 µg/mL | 31.2 µg/mL
Cc1ccc(C(C)C)c(O)c1 [Thymol, thymol] | 125 µg/mL | 
